Experimental findings from patent EP4725957A1, “GROUP OF CYCLIC ALKALINE LIPOPEPTIDE COMPOUNDS, AND PREPARATION METHOD THEREFOR AND USE THEREOF” (Institute of Medicinal Biotechnology, Chinese Academy of …, priority 2023, dated 2024) are described below.

For data set [1], the system named is Pseudomonas aeruginosa ATCC 27853. The class given is cell-based. Put shortly: (§1)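 Minimal inhibitory concentrations are measured following CLSI microdilution guidance in MH broth. Test concentrations run from 64 down to 0.03 mg/L in doubling steps, with a final bacterial load of (2-4) × 10^5 CFU/mL and 16-20 h incubation at 35-37°C.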
Data set [2] deals with Acinetobacter baumannii NCTC 13304 (OXA-27). The class given is cell-based. Put shortly: as §1
Data set [3] concerns Klebsiella pneumoniae ATCC BAA-1705 (KPC). The class given is cell-based. Put shortly: as §1
Data set [4] deals with Acinetobacter baumannii ABA19-1. The class given is cell-based. The essentials: as §1
Data set [5] concerns Escherichia coli ATCC BAA-2340 (KPC). The format is cell-based. The essentials:
as §1

Data set [6] concerns Pseudomonas aeruginosa PAE19-3. The format is cell-based. The essentials: as §1
Data set [7] concerns Escherichia coli ATCC BAA-2523. The format is cell-based. The essentials:
as §1

The subject of data set [8] is Klebsiella pneumoniae KPN+19-15. The format is cell-based. The essentials:
as §1

Data set [9] in a line: Nephrotoxicity assay: in vitro cytotoxicity of HK-2 cells by CCK-8 assay. The class given is cell-based. The settings on record: human, HK-2 cells (human renal), 72 h incubation with drug-containing medium. Put shortly:
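HK-2 human renal cells in RPMI-1640 with 10% FBS were exposed to compounds at final 12.5–500 µg/mL for 72 h, then CCK-8 for 3 h and OD450 read. Viability was normalised to drug-free wells; IC50 came from logarithmic regression over three repeats, with polymyxin B as positive drug.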

The test system of data set [10] is Healthy ICR mice. Put plainly: Acute toxicity test in healthy mice, single tail vein injection. The format is in vivo. The settings on record: within 7 days. Here is the method:
(§2) Healthy ICR mice aged 5-6 weeks were selected, with 5-10 mice in each group, and administered via a single tail vein injection at an administration volume of 20 mL/kg. In the preliminary test, the drug dose concentrations that caused 100% mortality and no mortality in mice after a single intravenous injection were determined. Based on this dose range, 4-5 dose groups were set up, with a dose ratio of 1:0.5 to 1:0.8 between adjacent groups. The mortality of animals within 7 days after administration was recorded. According to the mortality rate of experimental animals in each group, the median lethal dose (LD50) of the test samples, i.e., the dose causing 50% mortality of the tested animals, was calculated by the Bliss method.

Assay in data set [11]: as above
The class given is in vivo. As to conditions: mouse, in vivo, iv; ICR mice, single tail vein injection, Bliss method. Here is the method:
as §2

For data set [12], the system named is Pseudomonas aeruginosa ATCC27853. Description: In vivo antibacterial (protection) test in infected mice. The settings on record: infected ICR mice, 7 days observation. The source says:
Pseudomonas aeruginosa ATCC27853 was selected for the determination of in vivo antibacterial activity.
One day before infection, the test bacteria were inoculated onto the corresponding nutrient agar plates and cultured overnight. On the day of infection, single colonies grown on the plates were picked and suspended in sterile normal saline, and the suspension was mixed thoroughly to obtain the original bacterial solution. The bacterial solution was then adjusted to the required concentration with 5% dried yeast powder and prepared freshly prior to use.
Healthy ICR mice were randomly divided into groups, with 5 mice per group, half male and half female. Bacterial solutions of different dilutions were aspirated and injected intraperitoneally into mice at a volume of 0.5 mL per 20 g of body weight. The mortality of mice was recorded within 7 days after infection. The minimum bacterial dose causing 100% mortality in mice was defined as the minimum lethal dose (MLD), which was used as the infection dose for the in vivo protection test.
Drug administration was performed via tail vein injection at 2 h, 8 h, 24 h, and 30 h after infection, with a total of 4 administrations, and the administration volume was 20 mL/kg. For the preparation of drug solutions, Compound 7, together with the control drugs polymyxin B and meropenem, were dissolved in normal saline to the required concentrations for tail vein injection, and all solutions were prepared freshly prior to use.
In the preliminary test, the drug dose concentrations that caused 100% mortality and no mortality in mice after infection with the tested bacteria were determined. Based on this dose range, 4-5 dose groups were established, with a dose ratio of 1:0.5 to 1:0.8 between adjacent groups.
Mice were randomly grouped according to body weight, with 8 mice per group (half male and half female). Each mouse was intraperitoneally infected with the test bacterial solution at a volume of 0.5 mL per 20 g of body weight, followed by tail vein injection at 2 h, 8 h, 24 h, and 30 h after infection. Mice in the blank control group were not infected with bacterial solution but were only given an equal volume of vehicle at an administration volume of 20 mL/kg. The mortality of mice was observed and recorded for 7 consecutive days.
The minimum lethal bacterial concentration of Pseudomonas aeruginosa ATCC27853 for intraperitoneal infection in mice was 4.2 × 10^2 CFU/mL, which was used as the infection dose in the formal test.
Mice in the infection control group were intraperitoneally inoculated with Pseudomonas aeruginosa ATCC27853 bacterial solution at the MLD concentration ([…]). Infection symptoms began to appear 3-4 hours after inoculation, and all 8 animals died within 48 hours (8/8), with a mortality rate of 100%.

[13] abbreviates: Pseudomonas aeruginosa ATCC27853.
The mark [14] stands for this setting: Acinetobacter baumannii NCTC 13304 (OXA-27).
Setting [15] is: Klebsiella pneumoniae ATCC BAA-1705 (KPC).
The mark [16] stands for this setting: Acinetobacter baumannii ABA19-1.
Where [17] appears, read: Escherichia coli ATCC BAA-2340 (KPC).
The mark [18] stands for this setting: Klebsiella pneumoniae KPN 19-15.

In brackets after ≈: the same amount, converted by molar mass. Read-outs that look alike come from different tables or passages of the source. Bridge positions count the residues as written; N and C are the ends. Square brackets hold non-standard residues; d marks the D form. Peptide text beside a SMILES is read from it. * marks the point of attachment. Heptanoyl(6-Me) = CC(C)CCCCC(=O)*; dDab = NCC[C@@H](N)C(=O)O; Octanoyl = CCCCCCCC(=O)*; dDap = NC[C@@H](N)C(=O)O; Dab = NCC[C@H](N)C(=O)O; Dap = NC[C@H](N)C(=O)O

`CC(C)CCCCC(=O)N[C@@H](CCN)C(=O)N[C@H](C(=O)N[C@H](CN)C(=O)N[C@H]1CCNC(=O)[C@H]([C@@H](C)O)NC(=O)[C@H](CCN)NC(=O)[C@H](CCN)NC(=O)[C@H]([C@@H](C)O)NC(=O)[C@@H](Cc2ccccc2)NC(=O)[C@H](CCN)NC1=O)[C@@H](C)O` [Compound 2, 6-methylheptanoyl-Dab-Thr-D-Dap-ring(4-10)[Dab-Dab-D-Phe-Thr-Dab-Dab-Thr]] ({Heptanoyl(6-Me)}-[Dab]T[dDap][Dab][Dab][dF]T[Dab][Dab]T; lactam 4-C): the minimum inhibitory concentration (MIC) is on record as no more than 0.03 µg/mL in data set [1] (setting [13]); no more than 0.03 µg/mL in [2] (setting [14]); no more than 0.03 µg/mL in data set [3] (setting [15]); no more than 0.03 µg/mL in data set [4] (setting [16]); no more than 0.03 µg/mL in data set [5] (setting [17]); 0.125 µg/mL (≈ 0.107 µM) in data set [6] (Pseudomonas aeruginosa PAE19-3). The minimal inhibitory concentration (MIC) in [7] (Escherichia coli ATCC BAA-2523) and in [8] (setting [18]) was no more than 0.03 µg/mL throughout. For the same compound, in data set [9], the concentration for half-maximal inhibition (IC50) at 72 h is greater than 500 µg/mL. The mortality rate in data set [10] (single tail vein injection 15.36 mg/kg) was found to be 0%; in data set [10] (single tail vein injection 19.2 mg/kg), 25%; in [10] (single tail vein injection 24 mg/kg) it was 62.5%; in [10] (single tail vein injection 30 mg/kg) it was 100%. Also, the 50% lethal dose (LD50) at 168 h in data set [11] amounted to 22 mg/kg.
Polymyxin B [reference compound]: the minimum inhibitory concentration (MIC) in data set [1] (setting [13]) stood at 0.25 µg/mL; in data set [2] (setting [14]), 0.06 µg/mL; in data set [3] (setting [15]), 0.125 µg/mL; in data set [4] (setting [16]) it was 0.25 µg/mL; in data set [5] (setting [17]), 0.03 µg/mL; in data set [6] (Pseudomonas aeruginosa PAE19-3), 0.25 µg/mL. Also, the values for the minimal inhibitory concentration (MIC) in data set [7] (Escherichia coli ATCC BAA-2523) and in [8] (setting [18]) were 0.03 µg/mL and 0.125 µg/mL, respectively. For the same compound, the mortality rate was 100% in data set [12] (0.7 mg/kg tail vein twice daily for 2 days), 100% in data set [12] (1.0 mg/kg tail vein twice daily for 2 days), 87.5% in [12] (1.4 mg/kg tail vein twice daily for 2 days) and 62.5% in data set [12] (2 mg/kg tail vein twice daily for 2 days).
With `CCCCCCCC(=O)N[C@@H](CN)C(=O)N[C@H](C(=O)N[C@H](CCN)C(=O)N[C@H]1CCNC(=O)[C@H]([C@@H](C)O)NC(=O)[C@H](CCN)NC(=O)[C@H](CCN)NC(=O)[C@H](CC(C)C)NC(=O)[C@@H](CC(C)C)NC(=O)[C@H](CCN)NC1=O)[C@@H](C)O` [Compound 98, Octanoyl-Dap-Thr-D-Dab-ring(4-10)[Dab-Dab-D-Leu-Leu-Dab-Dab-Thr]] (Octanoyl-[Dap]T[dDab][Dab][Dab][dL]L[Dab][Dab]T; lactam 4-C), the MIC in data set [1] (ATCC 27853) was 0.5 µg/mL (≈ 0.438 µM); in [2] (NCTC 13304), 0.03 µg/mL (≈ 0.0263 µM); in data set [3] (ATCC BAA-1705), 0.03 µg/mL (≈ 0.0263 µM); in [4] (ABA19-1), 0.03 µg/mL (≈ 0.0263 µM); in [5] (ATCC BAA-2340), 0.03 µg/mL (≈ 0.0263 µM); in data set [6] (PAE19-3) it was 0.5 µg/mL (≈ 0.438 µM). The MIC in data set [7] (ATCC BAA-2523) and in data set [8] (KPN+19-15) was 0.03 µg/mL (≈ 0.0263 µM) each time. It took 238 ± 9.9 µg/mL (≈ 209 µM) to reach half-maximal inhibition in data set [9] (IC50 at 72 h).
